Measured values published in patent publication US12329780B2, “Acute and chronic mitochondrial electron transport chain dysfunction treatments and graphenic materials for use thereof” (WILLIAM MARSH RICE UNIVERSITY, priority 2017, dated 2025).

Legend:
[1] = Midpoint reduction potential; assay type: physicochemical
Source text: PEG-HCCs and MB are electrochemically similar with respect to midpoint reduction potentials of +11 mV and ˜0 mV respectively, although PEG-HCCs have a much broader range. PEG-HCCs appear to have similar effects on the electron transport chain as described for MB.

[2] = target: ferricytochrome C (CytCox) (Homo sapiens, UniProt P99999); assay: ETS kinetics: reduction of ferricytochrome C by NADH; assay type: biochemical; settings: 4 mg/L catalyst, CytCox 40 μM, NADH 0-5 mM
Sequence of ferricytochrome C (CytCox) (P99999 whole entry): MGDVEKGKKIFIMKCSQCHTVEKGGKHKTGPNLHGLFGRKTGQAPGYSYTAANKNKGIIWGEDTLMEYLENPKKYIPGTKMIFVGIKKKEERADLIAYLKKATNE

[3] = system: bEnd0.3 murine cerebrovascular endothelial cells; assay: Hydrogen peroxide challenge assay in bEnd.3 cells (Calcein AM live cell counts); assay type: cell-based; settings: MB 0, 5, 10 and 20 μM, with or without 100 μM H2O2
Method: The differential properties of MB and PEG-HCCs were tested by using a hydrogen peroxide challenge assay in cultured cells. Hydrogen peroxide exerts toxic effects on endothelial cells through at least four routes: hydroxyl and superoxide radical formation by reacting with reduced species, nitric oxide synthase (NOS) and NADPH oxidase (NOX) stimulation and uncoupling, modulation of mitochondrial permeability, and the Fenton reaction. This employs administering the test agent after the hydrogen peroxide since efficacy under post-injury conditions would be critical for clinical translation.
PEG-HCCs and MB were compared in two standard hydrogen peroxide challenge assays. In the first experiment, bEnd0.3 murine cerebrovascular endothelial cells were treated with PEG-HCCs, and 100 μM H2O2 with and without 8 mg/L PEG-HCCs. The cells were incubated overnight and then then detached and counted using a hemocytometer and Calcein AM to label live cells. (Live cell counts n=32).
A similar assay was performed with MB at 0, 5, 10 and 20 μM given 15 minutes after initial exposure to 100 μM H2O2. […] The inclusion of 100 μM H2O2 further reduced survival.

[4] = Deferoxamine degradation in solution by 262 nm UV absorbance; assay type: physicochemical
Source text: FIG. 12 is a graph in which Y-axis is units of deferoxamine remaining in solution through monitoring of the 262 nm absorbance by UV spectroscopy. Trend line 1203 illustrates deferoxamine degradation in PBS solution (DEF/PBS). Trend line 1201 illustrates the degradation of deferoxamine in a PBS solution and dilute PEG-HCC (DEF/PEG). Trend line 1202 illustrates deferoxamine degradation in a PBS that had nitrogen gas bubbled through it (DEF/N2).
An additional advantage of this formulation is that it prevents the oxidative breakdown of the deferoxamine molecule, likely through an interaction with the antioxidant capacity of the parent nanomaterial (FIG. 12). This is a tremendous advantage clinically because current deferoxamine has a short shelf life when prepared for intravenous administration, which could be dramatically extended through this formulation and thereby be useful for settings other than the hospital, such as in a battle field, automobile trauma, or other setting in which tissue injury must be rapidly treated.

[5] = administered intravenously by itself; cited from earlier work

| Midpoint reduction potential [1] [mV] | Vmax [2] [M/s] | Deferoxamine degradation in solution ([4]; PBS solution with dilute PEG-HCC (DEF/PEG)) | Deferoxamine degradation in solution ([4]; PBS with nitrogen gas bubbled through (DEF/N2)) | Structure (SMILES) | Cell survival [3] | Half-life in circulation (t1/2) [5] |
| --- | --- | --- | --- | --- | --- | --- |
| ~0 | 1.432e-07 |  |  | CN(C)c1ccc2nc3ccc(=[N+](C)C)cc-3sc2c1 [MB, Methylene blue] | dose-dependent reduction in cell survival |  |
|  |  | no detectable degradation | no detectable degradation | CC(=O)N(O)CCCCCNC(=O)CCC(=O)N(O)CCCCCNC(=O)CCC(=O)N(O)CCCCCN [deferoxamine] |  | ≈ 0.3 h |
